System: Plasmodium falciparum
Assay: GSK_TCMDC: Inhibition of Plasmodium falciparum 3D7 in whole erythrocytes, using parasite LDH activity as an index of growth.
Assay type: functional, organism-based
Settings: Plasmodium falciparum, 3D7

CO/C(=C\C=C\c1cc2cc(Cl)c(Cl)cc2[nH]1)C(=O)NCCCNCCN(C)c1ccccc1
XC50: 784 nM

O=C(Nc1ccc(OC2CCN(Cc3ccc(F)cc3)C2)c(Cl)c1)c1ccccc1 (centres undefined)
XC50: 787 nM

Oc1ccccc1CN1CCC2(CCCN(Cc3ccccc3F)C2)C1 (centres undefined)
XC50: 679 nM

Cc1cc(CN2CCC(Nc3ncc(-c4ccsc4)c4nc(C(F)(F)F)ccc34)CC2)no1
XC50: 1100 nM

O=C(Nc1ccc(F)c([N+](=O)[O-])c1)Nc1cc(C(F)(F)F)ccc1Cl
XC50: 861 nM

CN1CCC(N2CCN(Cc3cccc(-c4ccc(-c5nc6ccccc6[nH]5)cc4)c3)CC2)CC1
XC50: 156 nM

Cn1nc(-c2cccc(CNCc3ccccc3)c2)c2cnc(NC3CCCC3)nc21
XC50: 1260 nM

COc1ccc(-c2cnc3[nH]cc(-c4ccc(C(=O)O)c(C)c4)c3c2)cn1
XC50: 311 nM

COc1ccc(C2CC(c3cccs3)=NN2C(=O)c2ccco2)cc1OC (centres undefined)
XC50: 172 nM

CC(C)(C)C(=O)Nc1ccc(N2CCN(C(c3ccccc3)c3ccccc3)CC2)c(Cl)c1
XC50: 662 nM

CN1CC=C(c2csc3ccc(NC(=O)Nc4ccc(-c5ccncc5)c5ccccc45)cc23)CC1
XC50: 804 nM

CN(C)CCOc1cc(NC(=O)Nc2ccc(-c3ccncc3)c3ccccc23)ccc1I
XC50: 777 nM

O=C(CCCCCNC(=O)c1ccc(O)c(-c2cccc(C(F)(F)F)c2)c1)NCCN1CCCCC1
XC50: 888 nM

CC(C)CNCc1cccc(-c2cccc(CN(CCCN3CCN(C)CC3)C(=O)NC3CCCCC3)c2)c1
XC50: 761 nM

CN1CCN(CC(=O)Nc2ccc(-c3cccc(-c4nc5cc(C(F)(F)F)ccc5[nH]4)c3)cc2)CC1
XC50: 399 nM

Cc1cccc2nc(-c3ccc(-c4cccc(NC(=O)c5cnccc5C(F)(F)F)c4)cc3)[nH]c12
XC50: 998 nM

CC(Cc1ccc(OC2CCCCC2)cc1)NCC(O)c1cccc(Cl)c1 (centres undefined)
XC50: 138 nM

O=C(c1ccc(Cl)cc1)C1CCCN(C2CCN(CCc3ccccc3)CC2)C1 (centres undefined)
XC50: 1450 nM

CC(C)c1ccc2[nH]c(C(=O)NC3CCC(N4CCCc5ccc(C#N)cc5C4)CC3)cc2c1 (centres undefined)
XC50: 1090 nM

CCn1c(C)c(C)c2cc(C(=O)Nc3ccon3)ccc21
XC50: 732 nM

O=C(NCCCCN1CCC(c2ccc3c(c2OCc2ccncc2)CCCC3)CC1)c1ccc(-c2ccc(C(F)(F)F)cc2)cc1
XC50: 168 nM

Cc1c(C)n(Cc2ccccc2)c2ncnc(OC3CCN(CC(=O)NCC4CC4)CC3)c12
XC50: 1120 nM

CCCCCCCCNCC(O)c1cc(-c2ccc(Cl)cc2)nc2cc(C)ccc12 (centres undefined)
XC50: 82.3 nM

CCc1ccc(S(=O)(=O)Nc2ccc(CCN3CCC(N4CCCCC4)CC3)cc2)cc1
XC50: 988 nM

Cc1cc(N2CCN(CC3CCCCC3)CC2)nc(Nc2ccc(Br)cc2)n1
XC50: 1090 nM

O=C(NC1CC1)c1cnc(N2CCC(Oc3ccc(Cl)cc3)CC2)c(Cl)c1
XC50: 1090 nM

NC(=O)Nc1ccc2cn[nH]c2c1
XC50: 205 nM

COc1cc(F)c2ncc(Cl)c(C(O)CN3CCC(NC(=O)c4ccc5c(c4)NC(=O)CS5)CC3)c2c1 (centres undefined)
XC50: 680 nM

CCCCNCc1ccc(-c2nc(CN(CCCN3CCN(C)CC3)C(=O)Nc3cccc(Cl)c3)cs2)cc1
XC50: 967 nM

COc1cc2c(cc1S(=O)(=O)c1ccc(COc3ccc(C(F)(F)F)cc3)cc1)CNCC2
XC50: 746 nM

O=C1C(C2CCC(c3ccc(Cl)cc3)CC2)=C2OCC3COC2(O3)c2ccccc21 (centres undefined)
XC50: 39 nM

OC(CNCCCCCCNCC(O)c1ccc(Cl)c(Cl)c1)c1ccc(Cl)c(Cl)c1 (centres undefined)
XC50: 915 nM

COc1c(C2CCN(CCCCNC(=O)c3ccc(-c4ccc(Cl)cc4)cc3)CC2)ccc2c1C(C)(C)CCC2(C)C
XC50: 777 nM

CS(=O)(=O)c1ccc(CNCc2ccc(-c3ccc(-c4nc5cc(C(F)(F)F)ccc5[nH]4)cc3)cc2)cc1
XC50: 706 nM

CN(C)C(=O)C(CC(=O)NCc1ccccc1Cl)N(C)C.CN(C)C(=O)CC(C(=O)NCc1ccccc1Cl)N(C)C (centres undefined)
XC50: 896 nM

c1ccc2[nH]c(Nc3ccc(Nc4nc5ccccc5[nH]4)cc3)nc2c1
XC50: 783 nM

O=S(=O)(NCCN1CCCC1)c1ccc(-c2ccccc2CNC2Cc3ccccc3C2)cc1
XC50: 847 nM

c1ccc2[nH]c(-c3ccc(-c4ccc(CN5CCN(c6ccncc6)CC5)cc4)s3)nc2c1
XC50: 202 nM

Cc1cc(N[C@@H](CC(C)C)C(=O)NCc2cccs2)nc(Nc2ccccc2)n1
XC50: 1130 nM

CCC(COCc1ccc(Cl)cc1)N(C)CCN(C)C(CC)COCc1ccc(Cl)cc1 (centres undefined)
XC50: 1060 nM

CC(C)(C)c1ccc(N2C(N)=NC(N)=NC2(C)C)cc1
XC50: 26.7 nM

COc1ccc2nccc([C@@H](O)CN3CCC(NCc4cnc5snnc5c4)C(F)C3)c2c1 (some centres undefined)
XC50: 1350 nM

Cc1noc(C)c1-c1cccc(CNCc2ccc(-c3ccc(-c4nc5cc(F)ccc5[nH]4)s3)cc2)c1
XC50: 423 nM

O=C(/C=C/c1ccc(Cl)c(Cl)c1)NCC1CCN(Cc2ccc(O)cc2)CC1
XC50: 694 nM

COc1ccc(-c2nc(NC(=O)CS(=O)(=O)c3ccc(C)cc3)sc2C)cc1
XC50: 401 nM

COc1ccc(NC(=O)C2CCN(CCCCCNC(=O)/C=C/c3ccc(Cl)c(Cl)c3)CC2)cc1
XC50: 828 nM

NC1=NC(c2ccccc2)(c2ccccc2)C(=O)N1Cc1ccc(-c2cccnc2)cc1
XC50: 704 nM

O=C(Cn1cc(C(F)(F)F)cc(Cl)c1=O)N1CCN(S(=O)(=O)c2ccc(Cl)cc2)CC1
XC50: 897 nM

CN(C)CCOc1cc(NC(=O)Nc2ccc(-c3ccncc3)c(Cl)c2)ccc1I
XC50: 143 nM

Nc1ncc(-c2ccccc2)cc1/C=C/c1cccnc1
XC50: 1120 nM

CCCCCCNC(=O)C1Cc2c([nH]c3ccc(C)cc23)C2(CCN(CCc3ccccc3)CC2)N1 (centres undefined)
XC50: 1270 nM

COc1ccc(-c2ccccc2CNC2Cc3ccccc3C2)cc1S(=O)(=O)NCCN1CCCC1
XC50: 870 nM

O=C(Nc1cccc(CN2CCCN(Cc3cccc(F)c3)CC2)c1)c1ccc(Cl)c(Cl)c1
XC50: 923 nM

O=C(N[C@@H](Cc1ccccc1)C(=O)NC1CCCc2ccccc21)c1ccc(O)c(-c2ccc(Cl)c(Cl)c2)c1 (some centres undefined)
XC50: 209 nM

O=c1cc(NCCCNCc2ccc3c(c2)OC(F)(F)O3)[nH]c2ccccc12
XC50: 770 nM

Nc1cc(C(F)(F)F)ccc1Cl
XC50: 736 nM

O=C(Nc1ccc(Cl)cc1)c1ccc(CN2CCCN(Cc3ccccc3)CC2)cc1
XC50: 753 nM

N#Cc1cccc(C(=O)Nc2cccc(-c3cccc(CN4CCNCC4)c3)c2)c1
XC50: 947 nM

O=C(Nc1ccc(Cl)cc1)N[C@H]1CCN(CCCCCNC(=O)C2CC2c2ccc(Cl)c(Cl)c2)C1 (some centres undefined)
XC50: 874 nM

CC1CN(c2cnn(Cc3cccc(NC(=O)Nc4ccc(-c5ccccc5)cc4)c3)c(=O)c2Cl)CC(C)N1 (centres undefined)
XC50: 340 nM

CCc1c(CCNCC/C=C/CCNCCc2ccc(OC)c(OC)c2CC)ccc(OC)c1OC
XC50: 771 nM

O=C(c1cc(C(=O)Nc2ccccc2)c(=O)n(-c2ccccc2)c1)c1cc(Cl)ccc1O
XC50: 390 nM

COc1ccc(NC(=O)[C@H](C)Nc2cc(C)nc(NCC3CCCCC3)n2)cc1
XC50: 1280 nM

Cc1ccc(NC(=O)Nc2ccc(Br)cc2)cc1OCCN(C)C
XC50: 975 nM

CCCC(C)Nc1nc(C)cc(N[C@@H](CC(C)C)C(=O)NCCc2ccccc2)n1 (some centres undefined)
XC50: 1360 nM

CN1CCN(Cc2ccc(-c3cccc(-c4nc5ccccc5[nH]4)c3)cc2)CC1
XC50: 1390 nM

CN(c1cc(NC(=O)c2ccc(F)cc2)ccn1)C1CCN(Cc2ccc(C#N)cc2)CC1
XC50: 1510 nM

O=C(Nc1cccc(CCNCc2ccccc2)c1)Nc1cccc2ccccc12
XC50: 729 nM

Cc1cc(-c2nc3ccc(C(=O)NCc4ccccc4)cc3n2C2CCN(C(=O)c3ccc(-c4ccccc4)cc3)CC2)ccn1
XC50: 898 nM

CCOc1cc(CNCCCCCCNCc2cc(OCC)c(OCC)c3ccccc23)c2ccccc2c1OCC
XC50: 284 nM

CCNc1cc(C)nc(Nc2ccc(NS(=O)(=O)c3ccccc3)cc2)n1
XC50: 791 nM

O=C(c1ccc(Cl)cc1)N1CCCC(C(=O)N(Cc2nnc(-c3ccccc3Cl)o2)C2CC2)C1 (centres undefined)
XC50: 227 nM

Nc1ccc(-c2cc(Cl)cc(Cl)c2)cc1-c1cc2ccccc2[nH]1
XC50: 695 nM

CCOC(=O)c1c(C)n(-c2ccc(Cl)cc2)c2ccc(OC(=O)C=Cc3ccccc3)cc12
XC50: 698 nM

COc1ccc(-c2cnc3ccc(NCCCO)nn23)cc1OC
XC50: 672 nM

COc1cccc2c(NCCNc3ccnc4c(OC)cccc34)ccnc12
XC50: 267 nM

Cc1ccc2[nH]c(C3CCCNC3)c(-c3ccncc3)c2c1 (centres undefined)
XC50: 1230 nM

CCCCCC(C)c1cc(O)c2c(c1)OC(C)(C)C=C2C1=CCN(Cc2ccccc2)CC1 (centres undefined)
XC50: 780 nM

Cc1[nH]c2cc(Cl)ccc2c1C1=CCN(CCCCC2(C)C(=O)Nc3ccccc32)CC1 (centres undefined)
XC50: 333 nM

CC(=O)Nc1cccc(C(=O)Nc2ccc(-c3ccc(-c4nc5cccc(C)c5[nH]4)s3)cc2)c1
XC50: 1740 nM

Cc1ccc(CNC(=O)c2cnc(N3CCN(c4ccncc4)CC3)c(Cl)c2)cc1
XC50: 1290 nM

Cc1cc(N2CCCCC2)nc2ccc(NC(=O)c3cncc(Br)c3)cc12
XC50: 718 nM

CC[C@H](C)CNC(=O)c1cncc(-c2cccc(CNCCCc3ccccc3)c2)c1
XC50: 1170 nM

O=C(NC1CCN(Cc2ccccc2)CC1)c1cccc(-c2nc3ccc(Cl)cc3[nH]2)c1
XC50: 864 nM

CCOc1ccc2[nH]c(-c3ccccc3)cc(=NN=Cc3ccncc3)c2c1
XC50: 149 nM

C=CCOC(=O)N1CCC(CNCc2cccc(-c3cccc(-c4nc5ccccc5[nH]4)c3)c2)C1 (centres undefined)
XC50: 340 nM

CN1CCC(N2CCN(Cc3ccc(-c4cccc(-c5nc6ccccc6[nH]5)c4)cc3)CC2)CC1
XC50: 145 nM

COc1ccc(-n2ccnc2SCC(=O)Nc2cccc(C(F)(F)F)c2)c(OC)c1
XC50: 220 nM

CCCCn1c(Sc2ccc(C#N)c([N+](=O)[O-])c2)nnc1-c1cccc(Cl)c1
XC50: 762 nM

CSc1nc2cc3c(cc2n1C(=O)c1ccc(C)cc1)OCCO3
XC50: 166 nM

CCCCCCn1ccc2c3c(N)nc(N)nc3ccc21
XC50: 149 nM

CC(C)(C)OC(=O)NCC(=O)N(Cc1ccccc1)Cc1ccccc1
XC50: 124 nM

Oc1ccccc1-c1nc2cccnc2n1CCc1cccc(C(F)(F)F)c1
XC50: 1270 nM

CN(Cc1ccccc1)C1CCN(CCc2c[nH]c3ccc(F)cc23)CC1
XC50: 597 nM

Cn1cnc2c(Nc3ccncc3)nc(-c3ccc(OC(F)(F)F)cc3)nc21
XC50: 1100 nM

OC(CNC1CCCCC1)Cn1c2ccc(I)cc2c2cc(I)ccc21 (centres undefined)
XC50: 337 nM

CC(=O)C1(c2ccccc2)CCN(CCC2(c3ccc(Cl)c(Cl)c3)CN(C(=O)c3cccc(Cl)c3)CCO2)CC1 (centres undefined)
XC50: 854 nM

CN(C)Cc1ccc(-c2ccc3c(Nc4ccc(Oc5ccccn5)cc4)ccnc3c2)o1
XC50: 159 nM

Cc1cc(N)c2cc(NC(=O)/C=C/c3ccccc3Cl)ccc2n1
XC50: 405 nM
